# From ChEMBL document CHEMBL1155888, “Synthesis, inhibitory activities, and QSAR study of xanthone derivatives as alpha-glucosidase inhibitors” (Bioorg Med Chem, 2008)
# Assay: Inhibition of yeast alpha glucosidase in phosphate buffer after 0.5 hrs by spectrophotometry
# Design: species or system Saccharomyces
row,SMILES,IC50 [µM]
1,O=c1c2ccccc2oc2cccc(O)c12,177
2,COc1cc(O)c2c(=O)c3ccccc3oc2c1,173
3,Oc1cc(O)c2c(c1)Oc1cc3ccccc3cc1C2,27.8
4,COc1cc(O)c2c(=O)c3cc4ccccc4cc3oc2c1,31.3
5,Oc1cc(O)c2c(c1)Oc1ccc3ccccc3c1C2,34.9
6,O=c1c2cc3ccccc3cc2oc2cc(O)cc(O)c12,9.3
7,O=c1c2cc3cc(O)ccc3cc2oc2cc(O)cc(O)c12,5.8
8,O=c1c2cc3cccc(O)c3cc2oc2cc(O)cc(O)c12,8
9,O=c1c2ccccc2oc2cc(OCC3CO3)cc(O)c12 (stereo not drawn),66.6
10,O=c1c2cc(O)ccc2oc2cc(O)cc(O)c12,14.7
11,O=c1c2cc3ccccc3cc2oc2c([N+](=O)[O-])c(O)cc(O)c12,20.1
12,O=c1c2c(O)cc(O)cc2oc2ccc3ccccc3c12,39.9
13,O=c1c2ccccc2oc2cc(O)cc(O)c12,161
14,CCCCCOc1cc(O)c2c(=O)c3ccccc3oc2c1,121
15,O=c1c2ccc(O)cc2oc2cccc(O)c12,131
16,Nc1c(O)cc(O)c2c(=O)c3ccccc3oc12,102
17,CC(=O)Oc1cc(OC(C)=O)c2c(=O)c3ccccc3oc2c1,31.9
18,O=c1c2ccccc2oc2cc(OCC3CCCO3)cc(O)c12 (stereo not drawn),53
19,O=c1c2ccc(OCCCN3CCCCC3)cc2oc2cccc(O)c12,133
20,CCCCCCCOc1cc(O)c2c(=O)c3ccccc3oc2c1,114
21,CCCCCCCCOc1cc(O)c2c(=O)c3ccccc3oc2c1,124
22,O=c1c2ccc(O)cc2oc2cc(O)cc(O)c12,41.5

row,SMILES,IC50 [µM]
1,CC(=O)Oc1cc(OC(C)=O)c2c(=O)c3cc(OC(C)=O)ccc3oc2c1,46.5
2,CCCCCCCCCCOc1cc(O)c2c(=O)c3ccccc3oc2c1,116
3,O=c1c2ccccc2oc2cc(OCc3ccccc3)cc(O)c12,98.2
4,CCCCOc1cc(O)c2c(=O)c3ccccc3oc2c1,130
5,CCOc1cc(O)c2c(=O)c3ccccc3oc2c1,111
6,O=c1c2c(O)cccc2oc2cc(O)cc(O)c12,81.8
7,CC(=O)Oc1cc(OC(C)=O)c2c(=O)c3c(OC(C)=O)cc(OC(C)=O)cc3oc2c1,49.7
8,O=c1c2ccccc2oc2c([N+](=O)[O-])c(O)cc(O)c12,235
9,O=c1c2cc3ccccc3cc2oc2cc(OCCCBr)cc(O)c12,29.7
10,Nc1c(O)cc2oc3cc4ccccc4cc3c(=O)c2c1O,6.3
11,O=c1c2ccccc2oc2cc(OCCCBr)cc(O)c12,147
12,O=c1c2ccccc2oc2c3c(cc(O)c12)OCCC3,198
13,O=c1c2cc3ccccc3cc2oc2cc(O)c([N+](=O)[O-])c(O)c12,5.9
14,O=c1c2c(O)cccc2oc2cccc(O)c12,91.5
15,O=c1c2ccc(OCC3CO3)cc2oc2cccc(O)c12 (stereo not drawn),63.5
16,O=c1c2c(O)cc(O)cc2oc2cc(O)cc(O)c12,17.1
17,CC(=O)Oc1ccc2c(=O)c3c(OC(C)=O)cccc3oc2c1,139
18,O=c1c2ccccc2oc2cc(OCCCN3CCN(c4cccc(Cl)c4)CC3)cc(O)c12,61.8
19,O=c1c2ccccc2oc2cc(OCCCN3CCCCC3)cc(O)c12,115
20,O=c1c2cc3ccccc3cc2oc2c3c(cc(O)c12)OCCC3,67.3
21,Nc1c(O)cc(O)c2c(=O)c3cc4ccccc4cc3oc12,8.3
